Laboratory results from patent US8710059B2, “N-phenyl-(homo)piperazinyl-benzenesulfonyl or benzenesulfonamide compounds suitable for treating disorders that respond to the modulation of the serotonin 5-HT6 receptor” (Abbott Laboratories, priority 2010, dated 2014).

Target: T1, dopamine D2 receptor (Homo sapiens, UniProt P14416)
T1 construct: expressed in transfected cells
Experiment: Dopamine D2 receptor binding assay (displacement of [125I]-iodospiperone)
Settings: saturation binding experiments, HEK293 D2 membranes
Protocol: 1. […] The pellets were stored at −80° C. until use. […] (Beckman Ultrazentrifuge XL 80). […] 2. Receptor Binding Experiments
b) Dopamine D2 Receptor Binding Assay
Non-specific binding was defined with 1 μM haloperidol.

T1 sequence (P14416 whole entry): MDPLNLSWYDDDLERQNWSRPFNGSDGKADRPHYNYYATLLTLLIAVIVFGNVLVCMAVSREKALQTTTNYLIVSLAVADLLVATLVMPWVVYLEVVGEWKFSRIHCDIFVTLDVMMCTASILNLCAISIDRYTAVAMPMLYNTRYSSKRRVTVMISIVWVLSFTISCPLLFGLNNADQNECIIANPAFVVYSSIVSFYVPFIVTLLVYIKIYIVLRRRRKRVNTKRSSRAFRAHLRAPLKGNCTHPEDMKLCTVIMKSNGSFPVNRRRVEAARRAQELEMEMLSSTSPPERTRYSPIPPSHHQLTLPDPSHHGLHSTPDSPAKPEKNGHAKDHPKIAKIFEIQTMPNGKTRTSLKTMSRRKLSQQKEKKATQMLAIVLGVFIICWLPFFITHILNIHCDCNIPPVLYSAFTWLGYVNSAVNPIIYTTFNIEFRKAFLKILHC

Substance: iodospiperone [[^125I]-iodospiperone]
- Kd: 0.22 nM
